# Measurements: US8741932B2, “Imidazopyridine derivatives” (Piramal Enterprises Limited, priority 2009, dated 2014)
# pIC50: −log10 of the molar value.
# How the values were obtained:
# [1] = system: U 87 MG; assay: Cytotoxicity assay (propidium iodide), U 87 MG; format: cell-based; conditions: Homo sapiens; U 87 MG (C8b, glioblastoma); 48 hours
# Procedure: Cells from cell lines as mentioned in the table given below were seeded at a density of 3000 cells/well in a white opaque 96-well plate. Following incubation at 37° C./5% CO2 for a period of 18-24 hours, the cells were treated with various concentrations (stock solution was prepared in DMSO and subsequent dilutions were made in media as per ATCC guidelines) of the representative compounds of present invention (refer table 3) for a period of 48 hours. At the end of treatment, the spent culture medium was discarded, the cells were washed with 1×PBS and 200 μl of 7 μg/ml propidium iodide was added to each well. The plates were frozen at −70° C. for at least 24 hours. For analysis, the plates were brought to RT, allowed to thaw and were read in PolarStar fluorimeter with the fluorescence setting. The percentage of viable cells in the non treated set of wells was considered to be 100 and the percentage viability following treatment was calculated accordingly. IC50 values were calculated from graphs plotted using these percentages.
# [2] = system: DSS-induced colitis in C57BL/6J mice; assay: Ulcerative colitis, DSS-induced colitis in mice; format: in vivo; conditions: 3% DSS, 10 mg/kg orally daily, day 6 to day 10
# Procedure: The efficacy of compounds of the present invention on the gross pathology of colitis and proinflammatory mediators was determined by following the method described in Am. J. Physiol. Gastrointest. Liver Physiol.
# C57BL/6J mice (6 weeks of age, weighing 18-22 gms) were obtained from Jackson Laboratories (Bar Harbor, Me.) and housed in individually ventilated cage (IVC) system. Colitis was induced in mice by replacing drinking water with 3% (w/v) DSS (molecular weight 35-50 kDa, ICN Biomedicals, Aurora, Ohio, US) in water. This solution was made available to the experimental animals ad libitum, from day 0 to day 10. A batch of six naive animals received water instead of DSS during this period.
# DSS-induction of colitis was manifested with increase in clinical disease activity index associated with weight loss and presence of blood in feces.
# The animals were weighed every day and the record of body weights was maintained. The compound of Example 25 (10 mg/kg, prepared at a concentration of 1 mg/mL in 0.5% (w/v) CMC after mixing a drop of Tween 20) was administered orally daily to the colitis induced animals. This treatment was initiated on day 6 and continued up to day 10. During this period, DSS control animals received DSS, positive control animals received 5-aminosalicylic acid (5-ASA, 25 mg/kg, p.o.) and naïve animals received 0.5% CMC once daily.
# At the end of DSS treatment period, mice were humanely euthanized with 15% urethane (i.p.). The whole colon (i.e., including ceacum, proximal colon and distal colon) was excised.
# The colon was macrosopically assessed by determining • a) Rectal bleeding/blood in faeces • b) Stool consistency • c) Blood in colon • d) Colon length • e) % weight loss • f) Blood hemoglobin concentration
# Disease Activity Index: various features were scored as delineated in the following table.
# Disease activity index is the sum of scores of all features.
Compound,pIC50 [1],DSS-induced body weight loss [2],DSS-induced colon bleeding [2],DSS-induced decrease in hematocrit [2],DSS-induced disease activity index [2],DSS-induced shortening of colon [2],rectal bleeding index [2]
"Cc1ccc(F)cc1S(=O)(=O)N(C)N=Cc1cnc2ccc(-c3cccnc3)cn12 [Example 21, 5-Fluoro-N, 2-dimethyl-N′-((6-(pyridine-3-yl)imidazo[1,2-a]pyridine-3-yl)methylene) benzenesulfonohydrazide]",5.30 to 8.00,,,,,,
Cc1ccc([N+](=O)[O-])cc1S(=O)(=O)N(C)N=Cc1cnc2ccc(-c3cccnc3)cn12 [Example 25],,attenuated,attenuated,inhibited,reduced,inhibited,improved
